Laboratory results published in patent US20250215002A1, “SOLID FORMS OF TYK2 INHIBITORS AND METHODS OF USE” (Takeda Pharmaceutical Company Limited, priority 2022, published 2025).
Entries after “also recorded” stand apart in the source; their conditions may differ.

Key:
Type in all cases: physicochemical
[1] = Heating/desolvation experiments (TGA), recovered solids by XRPD
Method: TG analysis was performed using a Mettler-Toledo TGA/DSC3+ analyzer. Temperature calibration was performed using calcium oxalate, indium, tin, and zinc. The sample was placed in an aluminum pan. The pan was hermetically sealed, the lid pierced, then inserted into the TG furnace. A weighed aluminum pan configured as the sample pan was placed on the reference platform. The furnace was heated under nitrogen. Samples were analyzed from 25° C. to 350° C. at 10° C./min. The TGA/DSC3+ instrument was also used for select heating/desolvation experiments, in which solids were heated as described to a given temperature, then recovered and analyzed by XRPD.

[2] = Stable form screen slurries, resulting solid form by XRPD
Description: Early in the study, slurries were set up for the stable form screen at RT (Table 5, infra). In these experiments, solids of the as-received mixture of Form A+minor Material B were combined with given solvent systems at a solid loading that allowed for undissolved solids to remain, and the mixtures were stirred at ambient conditions. […] Two slurries were selected for isolation at that time to confirm the solid form and chemical composition, while the remaining slurries were covered with foil as a precaution. The slurry in THF, which was observed as a green suspension (darker than many of the other slurries), caused conversion to a new crystalline form, designated as Form C.
Additional slurries were set up at elevated temperatures (˜60° C. and ˜80° C.) and sub-ambient temperatures (2 to 8° C.) as well. […]
XRPD patterns were collected with a PANalytical X'Pert PRO MPD or a PANalytical Empyrean diffractometer using an incident beam of Cu radiation produced using a long, fine-focus source. […] Prior to the analysis, a silicon specimen (NIST SRM 640e) was analyzed to verify the observed position of the Si 111 peak is consistent with the NIST-certified position. A specimen of the sample was sandwiched between 3-μm-thick films and analyzed in transmission geometry. […]

[3] = Dynamic vapor sorption (DVS) moisture sorption/desorption; details: for Hygroscopicity (description): DVS 5-95% RH
Method: Moisture sorption/desorption data were collected on a Surface Measurement System DVS Intrinsic instrument. The samples were not dried prior to analysis. Sorption and desorption data were collected over a range from 5% to 95% RH in 10% RH increments under a nitrogen purge. The equilibrium criteria used for the analyses were 0.001 dm/dt weight change in 5 minutes with a minimum step time of 30 minutes and maximum equilibration time of 180 minutes with a 3-minute data logging interval. Data were not corrected for the initial moisture content of the samples.

[4] = Relative humidity stressing (~90% RH), solid form by XRPD; details: RT
Description: Select materials were transferred to a vial, which was then uncapped and placed inside ajar containing a saturated aqueous barium chloride solution for ˜90% RH in the headspace (See, Nyqvist, H. E., Saturated Salt Solutions for Maintaining Specified Relative Humidities, Int. J. Pharm. Technol. Prod. Manuf 1983, 4, 47-48, which is incorporated by reference in its entirety). Jars were stored at the stated temperatures.
XRPD patterns were collected with a PANalytical X'Pert PRO MPD or a PANalytical Empyrean diffractometer using an incident beam of Cu radiation produced using a long, fine-focus source. An elliptically graded multilayer mirror was used to focus Cu Kα X-rays through the specimen and onto the detector. Prior to the analysis, a silicon specimen (NIST SRM 640e) was analyzed to verify the observed position of the Si 111 peak is consistent with the NIST-certified position. A specimen of the sample was sandwiched between 3-μm-thick films and analyzed in transmission geometry. A beam-stop, short antiscatter extension, and antiscatter knife edge were used to minimize the background generated by air. Soller slits for the incident and diffracted beams were used to minimize broadening and asymmetry from axial divergence. Diffraction patterns were collected using a scanning position-sensitive detector (X'Celerator) located 240 mm from the specimen and Data Collector software v. […]

[5] = Slurries of Form C at high water activity, resulting form by XRPD; details: 1 d
Method: In addition to the slurries starting with Form A, two slurries of Form C were set up at high water activity conditions to study possible conversion to a hydrate (Table 9, supra). THF/water 50:50 (aw ˜1) and neat water (aw 1) were used.
Suspensions were prepared by adding enough solids to a given solvent at the stated conditions so that undissolved solids were present. The mixture was then agitated (typically by stirring or oscillation) in a sealed vial at a given temperature for an extended period of time. The solids were isolated as described above.

Critical water activity (aw) between Form A and Form C ([2]; RT, hydrate Form A versus anhydrous Form C) | Hygroscopicity (description) [3] | DVS weight gain 5-95% RH ([3]; sorption 5-95% RH) [%] | XRPD Result after RH stress ([4]; 6 d) | XRPD Result after heating ([1]; heat to 270° C., cool to 40° C., heat to 200° C. (TGA)) | DVS weight change at 5% RH ([3]; 5% RH) [% weight change at 5% RH] | post-DVS XRPD (solid form after DVS) ([3]; after sorption/desorption cycle 5-95-5% RH) | DVS weight loss 95-5% RH ([3]; desorption 95-5% RH) [% weight loss 95-5% RH] | DVS weight gain 5-95% RH, equivalent moles of water ([3]; sorption 5-95% RH) [mol] | XRPD Result after slurry ([5]; slurry in THF/water 50:50 (aw ~1)) | XRPD Result after slurry ([5]; slurry in water (aw 1)) | SMILES | XRPD Result after heating ([1]; heat to 150° C. (TGA)) | Thermodynamic stability of the form (description) ([2]; between 2° C. and 80° C.) | XRPD Result after RH stress ([4]; 11 d)
0.69-0.82 | significant hygroscopicity | 4.58 | still consisting of Form A | – | – | – | – | – | – | – | CNc1cc(Nc2cccn(-c3ccccn3)c2=O)nc2c(C(=O)N[C@@H]3CC[C@H]3OC)cnn12 [Form A] | Full conversion to Form C; also recorded: converted to Form C upon | – | –
– | limited hygroscopicity | 1.75 | – | Material D | 0.00 | consistent with Form C | 1.80 | ~0.5 | Full conversion to Form A | no form conversion | CNc1cc(Nc2cccn(-c3ccccn3)c2=O)nc2c(C(=O)N[C@@H]3CC[C@H]3OC)cnn12 [Form C] | – | likely thermodynamically stable anhydrous/non-solvated form | consistent with Form C; also recorded: did not readily convert to a hydrate
